Earlier results as cited in article PMC8672822 (RSC Medicinal Chemistry, 2021).
Where two headings read alike, the source gives them in different places.

What was measured:
[1] = test system: DC-SIGN; details: SPR competition
[2] = test system: murine Mincle; details: murine isoform
[3] = test system: human Mincle; details: human isoform
[4] = molecular target: bovine Mincle
[5] = test system: peripheral blood mononuclear cells (PBMCs) or bone marrow-derived macrophages (BMDM)
[6] = test system: Langerin
[7] = test system: DC-SIGN; details: monovalent
[8] = test system: DC-SIGN+ cells
[9] = in comparison to Man-α-1,2-Man
[10] = test system: DC-SIGN
[11] = molecular target: DC-SIGN; details: SPR direct
[12] = molecular target: DC-SIGN; details: ITC
[13] = test system: Langerin; remark: listed apart in the source
[14] = test system: DC-SIGN; details: relative to plate assay
[15] = test system: macrophage

For 2-C-aminomethyl-D-mannose [compound 21], the IC50 [1] is listed as 350 µM.
In the case of `Cc1cc(O)cc(O)c1C(=O)OC[C@H]1O[C@H](O[C@H]2O[C@H](COC(=O)c3c(C)cc(O)cc3O)[C@@H](O)[C@H](O)[C@H]2O)[C@H](O)[C@@H](O)[C@@H]1O` [compound 3, brartemicin], the binding [2] is given as “no binding”, the binding [3] is given as “no binding” and the Ki [4] is given as 5.5 µM. For the same compound, the Mincle-induced immune activation [5] was “no or a less effective Mincle-induced immune activation”.
For `CC(=O)NCCO[C@@H]1O[C@H](CO)[C@@H](O)[C@H](O)[C@H]1NS(=O)(=O)c1ccc(C)cc1` [compound 19], the “increase in binding affinity compared to the reference N-acetyl glucosamine” value [6] is given as 13 fold.
For `NC(=O)[C@H](CCC(=O)O)NC(=O)[C@H]1C[C@@H](O)[C@H](O)[C@H](O)[C@H]1SCCCCSCc1cccc(F)c1` [compound 22], the IC50 [7] is given as 3200 µM.
In the case of `COC(=O)[C@H]1C[C@H](OCCN)[C@@H](O[C@H]2O[C@H](CO)[C@@H](O)[C@H](O)[C@@H]2O)C[C@@H]1C(=O)OC` [compound 24], the “activity in comparison to Man-α-1,2-Man” value [8] is given as “three times more active” and the “resistance towards enzymatic digestion” value [9] is given as “more resistant”.
For `[N-]=[N+]=NCCO[C@H]1C[C@H](C(=O)NCc2ccc(CO)cc2)[C@@H](C(=O)NCc2ccc(CO)cc2)C[C@@H]1O[C@H]1O[C@H](CO)[C@@H](O)[C@H](O)[C@@H]1O` [compound 25], the IC50 ([10]; SPR competition) is listed as 300 µM.
For `[N-]=[N+]=NCCO[C@H]1C[C@H](C(=O)NCc2ccc(CO)cc2)[C@@H](C(=O)NCc2ccc(CO)cc2)C[C@@H]1O[C@H]1O[C@H](CN)[C@@H](O)[C@H](O)[C@@H]1O` [compound 26], the Kd [11] is listed as 310 µM, the IC50 ([10]; SPR competitive) is listed as 254 µM and the Kd [12] is listed as 171 µM. The “selectivity for DC-SIGN over Langerin” value [13] was “fully selective for DC-SIGN over Langerin”.
For `NCc1cn([C@@H]2[C@@H](O[C@H]3C[C@H](C(=O)NCc4ccc(CO)cc4)[C@@H](C(=O)NCc4ccc(CO)cc4)C[C@@H]3OCCCl)O[C@H](CO)[C@@H](O)[C@@H]2O)nn1` [compound 27], the Kd [11] is given as 53 µM, the IC50 ([10]; SPR competitive) is given as 76 µM and the Kd [12] is given as 52 µM. For the same compound, the “selectivity for DC-SIGN over Langerin” value [13] was “full selectivity against Langerin”.
For `CC(C)OC(=O)c1ccc(-c2ccc(/C=C3\C(=O)N(c4ccc(S(N)(=O)=O)cc4)N=C3C(F)(F)F)o2)cc1` [compound 33], the “decrease in affinity in cellular assay” value [14] is given as “up to 100 fold”.
For `NC(=O)c1ccc(CCCC2Nc3ccc(C(=O)N4CCN(c5ncccn5)CC4)cc3NC2=O)cc1` (stereo not shown) [compound 35], the aqueous solubility is listed as “improved aqueous solubility”.
In the case of `NS(=O)(=O)c1ccc(CCCC2Nc3ccc(C(=O)N4CCN(c5ccncc5)CC4)cc3NC2=O)cc1` (stereo not shown) [compound 36], the aqueous solubility is given as “improved aqueous solubility”.
For `OC[C@H]1O[C@H](O[C@H]2O[C@H](CO)[C@@H](O)[C@H](O)[C@H]2O)[C@H](O)[C@@H](O)[C@@H]1O` [trehalose], the macrophage activation [15] is given as “no effect”.
